Patent US9573899B2, “USP7 inhibitor compounds and methods of use” (Genentech, Inc., priority 2015, dated 2017)

target: T1, USP7, full-length, native C-Terminus (Homo sapiens, UniProt Q93009); experiment: Biochemical USP7 assay with Ubiquitin-Rho110 substrate, compounds pre-incubated with USP7 (USP7_Ub-Rho preInc); settings: compounds pre-mixed with USP7, 1 hour incubation, before substrate; read-out: USP7 Ub-Rho preInc (IC50)
T1 construct: USP7, full-length, native C-Terminus, 0.2 nM
Protocol: Biochemical USP7 assays using Ubiquitin-Rho110 as a substrate: The final assay conditions were as follows: The Reaction Buffer consisted of: 50 mM Tris (pH 7.5), 0.01% (v/v) Triton X-100, 2.5 mM Dithiothreitol, 0.1% (w/v) bovine gamma globulin (Sigma cat #G5009-25G); USP7, full-length, native C-Terminus, 0.2 nM; the substrate, Ubiquitin-Rho110 (Boston Biochem cat #U-555), 1 uM. Reactions were carried out for 1 hour at room temperature, in black 20 μL volume polystyrene ProxiPlate 384 F Plus® (PerkinElmer cat #6008260).
Test compounds, including a control USP7 inhibitor (Ub-aldehyde, Boston Biochem cat #U-201) were serially diluted in DMSO, in 384 well clear V-bottom polypropylene plates (Greiner cat #781280). Compounds in DMSO were diluted 10-fold into Reaction Buffer, to achieve 3-fold the final desired concentration. The substrate, Ubiquitin-Rho110 (Boston Biochem cat #U-555), was prepared at 3 μM (3-fold the final concentration) and 5 ul was dispensed into the reaction plate. 5 ul of the compounds (diluted in Reaction Buffer at 3-fold the final concentration) were transferred to the reaction plate. 5 ul of 0.6 nM USP7 (diluted in Reaction Buffer at 3-fold the final concentration) was transferred to the reaction plate to initiate the reaction. After 1 hour incubation at room temperature the reaction was quenched by the addition of 5 ul of 400 mM acetic acid. The enzymatic product was measured by quantifying the fluorescence signal of cleaved Rhodamine-110 using excitation at 485 nm and emission at 535 nm. When pre-incubation of USP7 with compounds was required, the order of addition of reagents was modified to pre-mix the compounds with USP7 (with a 1 hour incubation period), prior to the addition of the substrate and the initiation of the reaction period. Percentage inhibition values were calculated relative to a no enzyme control and a uninhibited enzyme control. Curve fitting and IC50 calculations were carried out using Genedata Screener software.

T1 sequence (Q93009 whole entry): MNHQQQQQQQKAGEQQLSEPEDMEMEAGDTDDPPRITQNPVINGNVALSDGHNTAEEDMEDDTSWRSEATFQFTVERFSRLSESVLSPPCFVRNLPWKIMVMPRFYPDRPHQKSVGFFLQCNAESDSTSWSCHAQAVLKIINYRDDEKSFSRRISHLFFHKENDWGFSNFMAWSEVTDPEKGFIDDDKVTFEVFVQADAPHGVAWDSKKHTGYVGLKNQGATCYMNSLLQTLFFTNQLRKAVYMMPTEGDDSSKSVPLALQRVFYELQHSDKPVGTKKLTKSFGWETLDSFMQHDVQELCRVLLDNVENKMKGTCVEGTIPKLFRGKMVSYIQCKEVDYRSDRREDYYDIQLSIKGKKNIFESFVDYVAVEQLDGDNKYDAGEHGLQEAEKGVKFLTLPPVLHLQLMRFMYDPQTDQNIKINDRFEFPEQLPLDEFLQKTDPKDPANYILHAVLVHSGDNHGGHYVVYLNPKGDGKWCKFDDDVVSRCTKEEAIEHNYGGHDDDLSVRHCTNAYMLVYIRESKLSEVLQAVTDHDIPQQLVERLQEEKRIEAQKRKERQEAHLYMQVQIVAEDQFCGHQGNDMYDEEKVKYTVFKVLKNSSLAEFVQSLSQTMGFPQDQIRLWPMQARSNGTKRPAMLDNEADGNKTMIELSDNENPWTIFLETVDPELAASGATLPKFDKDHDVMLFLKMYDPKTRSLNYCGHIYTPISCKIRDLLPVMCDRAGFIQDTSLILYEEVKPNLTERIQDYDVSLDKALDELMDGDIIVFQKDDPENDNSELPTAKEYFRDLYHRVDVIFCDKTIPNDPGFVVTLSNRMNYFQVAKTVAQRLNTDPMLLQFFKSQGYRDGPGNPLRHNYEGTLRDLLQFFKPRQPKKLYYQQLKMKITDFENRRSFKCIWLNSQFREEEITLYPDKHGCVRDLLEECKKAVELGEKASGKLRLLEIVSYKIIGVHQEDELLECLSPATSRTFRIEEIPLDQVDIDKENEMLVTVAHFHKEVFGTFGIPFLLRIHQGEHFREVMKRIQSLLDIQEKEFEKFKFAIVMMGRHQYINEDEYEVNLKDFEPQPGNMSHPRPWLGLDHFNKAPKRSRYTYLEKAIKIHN

Going from `CCc1c(-c2ccc(C#N)nc2)cnc(N)c1-c1ccc(O)cc1` [Compound 62, 5-[6-amino-4-ethyl-5-(4-hydroxyphenyl)-3-pyridyl]pyridine-2-carbonitrile] to `CCc1c(-c2ccc(OC)nc2)cnc(N)c1-c1ccc(O)cc1` [Compound 68, 4-[2-amino-4-ethyl-5-(6-methoxy-3-pyridyl)-3-pyridyl]phenol], the IC50 rises from 39.2 µM to > 63.3 µM.

First: CCc1c(-c2cncc(C#N)c2)cnc(N)c1-c1ccc(O)cc1 [Compound 63, 5-[6-amino-4-ethyl-5-(4-hydroxyphenyl)-3-pyridyl]pyridine-3-carbonitrile]
Second: CCc1c(-c2ccnc(C)c2)cnc(N)c1-c1ccc(O)cc1 [Compound 73, 4-[2-amino-4-ethyl-5-(2-methyl-4-pyridyl)-3-pyridyl]phenol]
The IC50 of the first is 4-fold lower: 11.7 µM for the first, 47.3 µM for the second.

`CCc1c(-c2cccc(C(=O)N3CCCC3)c2)cnc(N)c1-c1ccc(O)cc1` [Compound 64, [3-[6-amino-4-ethyl-5-(4-hydroxyphenyl)-3-pyridyl]phenyl]-pyrrolidin-1-yl-methanone] and `CCc1c(-c2cccc(C(=O)NC(C)C)c2)cnc(N)c1-c1ccc(O)cc1` [Compound 69, 3-[6-amino-4-ethyl-5-(4-hydroxyphenyl)-3-pyridyl]-N-isopropyl-benzamide] cannot be ordered by IC50: > 63.3 µM for the first, > 63.3 µM for the second.

Going from `CCc1c(-c2ccc(C(=O)NC3CC3)cc2)cnc(N)c1-c1ccc(O)cc1` [Compound 65, 4-[6-amino-4-ethyl-5-(4-hydroxyphenyl)-3-pyridyl]-N-cyclopropyl-benzamide] to `CCc1c(-c2ccc(Cl)cc2)cnc(N)c1-c1ccc(O)cc1` [Compound 80, 4-[2-amino-5-(4-chlorophenyl)-4-ethyl-3-pyridyl]phenol], the IC50 rises from 7.7 µM to 17.6 µM (2.3-fold).

Going from `CCc1c(-c2cccc(CC#N)c2)cnc(N)c1-c1ccc(O)cc1` [Compound 66, 2-[3-[6-amino-4-ethyl-5-(4-hydroxyphenyl)-3-pyridyl]phenyl]acetonitrile] to `CCc1c(-c2cccc(Cl)c2)cnc(N)c1-c1ccc(O)cc1` [Compound 77, 4-[2-amino-5-(3-chlorophenyl)-4-ethyl-3-pyridyl]phenol], the IC50 falls from 18.3 µM to 11 µM (1.7-fold). The second is the more potent here.

`CCc1c(-c2ccc(C#N)c(F)c2)cnc(N)c1-c1ccc(O)cc1` [Compound 67, 4-[6-amino-4-ethyl-5-(4-hydroxyphenyl)-3-pyridyl]-2-fluoro-benzonitrile] and `CCc1c(-c2ccc(F)c(C)c2)cnc(N)c1-c1ccc(O)cc1` [Compound 79, 4-[2-amino-4-ethyl-5-(4-fluoro-3-methyl-phenyl)-3-pyridyl]phenol] cannot be ordered by IC50: 45 µM for the first, > 20 µM for the second.

Compared with `CCc1c(-c2ccc(CNS(C)(=O)=O)cc2)cnc(N)c1-c1ccc(O)cc1` [Compound 70, N-[[4-[6-amino-4-ethyl-5-(4-hydroxyphenyl)-3-pyridyl]phenyl]methyl]methanesulfonamide], `CCc1c(-c2ccc(NC(C)=O)nc2)cnc(N)c1-c1ccc(O)cc1` [Compound 75, N-[5-[6-amino-4-ethyl-5-(4-hydroxyphenyl)-3-pyridyl]-2-pyridyl]acetamide] is 9.6-fold lower in IC50: 34.4 µM for the first, 3.6 µM for the second. The second is the more potent here.

Going from `CCc1c(-c2cnn(CC(C)C)c2)cnc(N)c1-c1ccc(O)cc1` [Compound 71, 4-[2-amino-4-ethyl-5-(1-isobutylpyrazol-4-yl)-3-pyridyl]phenol] to `CCc1c(-c2cccc(C(F)F)c2)cnc(N)c1-c1ccc(O)cc1` [Compound 74, 4-[2-amino-5-[3-(difluoromethyl)phenyl]-4-ethyl-3-pyridyl]phenol], the IC50 falls from 70.6 µM to 7.8 µM (9.1-fold).

Going from `CCc1c(-c2ccc(O)cc2)cnc(N)c1-c1ccc(O)c(C#N)c1` [Compound 72, 5-[2-amino-4-ethyl-5-(4-hydroxyphenyl)-3-pyridyl]-2-hydroxy-benzonitrile] to `CCc1c(-c2cc(F)cc(F)c2)cnc(N)c1-c1ccc(O)cc1` [Compound 76, 4-[2-amino-5-(3,5-difluorophenyl)-4-ethyl-3-pyridyl]phenol], the IC50 rises from 12.5 µM to > 20 µM. The first is the more potent here.

For `CCc1c(-c2ccccc2Cl)cnc(N)c1-c1ccc(O)cc1` [Compound 78, 4-[2-amino-5-(2-chlorophenyl)-4-ethyl-3-pyridyl]phenol], the IC50 was 15.7 µM.
